For 9 compounds, EC50 results are on record in patent US8940765B2, “N-linked quinolineamide M1 receptor positive allosteric modulators” (Merck Sharp & Dohme Corp., priority 2011, dated 2015).

The target in the assay is T1, acetylcholine muscarinic M1 receptor (Homo sapiens, UniProt P11229).
T1 construct: expressed in transfected cells; host or cells: CHOnfat cells (CHO with NFAT reporter background) stably expressing hM1, Geneticin selection
T1 sequence (P11229 1-460): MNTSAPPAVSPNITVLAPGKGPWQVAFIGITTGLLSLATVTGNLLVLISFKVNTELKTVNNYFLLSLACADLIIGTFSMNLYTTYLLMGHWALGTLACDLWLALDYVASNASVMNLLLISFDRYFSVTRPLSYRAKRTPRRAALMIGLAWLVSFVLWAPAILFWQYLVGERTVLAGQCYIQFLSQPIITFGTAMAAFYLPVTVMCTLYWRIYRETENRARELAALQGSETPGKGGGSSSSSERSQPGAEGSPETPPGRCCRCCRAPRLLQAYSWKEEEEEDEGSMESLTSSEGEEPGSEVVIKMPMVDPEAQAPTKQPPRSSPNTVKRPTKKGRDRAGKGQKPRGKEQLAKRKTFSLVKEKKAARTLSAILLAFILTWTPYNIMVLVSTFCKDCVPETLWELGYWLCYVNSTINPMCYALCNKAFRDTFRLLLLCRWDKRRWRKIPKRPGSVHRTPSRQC
In words: muscarinic FLIPR assay: intracellular calcium in CHOnfat/hM1 cells, potentiation of EC20 acetylcholine. The class given is cell-based. The conditions noted are these: FLIPR Ca2+, 4 min preincubation, then EC20 acetylcholine (3 nM final), read-out: IP Value (inflection point). How it is done:
The assay studies the effect of one or several concentrations of test compounds on basal or acetylcholine-stimulated Ca^2+ levels using FLIPR.
Compounds are prepared and subjected to a preincubation period of 4 min. Thereafter, a single EC20 concentration of acetylcholine is added to each well (3 nM final). The intracellular Ca^2+ level of each sample is measured and compared to an acetylcholine control to determine any modulatory activity.
Cells: CHOnfat/hM1, hM2, hM3 or hM4 cells are plated 24 hr before the assay at a density of 18,000 cells/well (100 μL) in a 384 well plate. CHOnfat/hM1 and CHOnfat/hM3 Growth Medium: 90% DMEM (Hi Glucose); 10% HI FBS; 2 mM L-glutamine; 0.1 mM NEAA; Pen-Strep; and 1 mg/ml Geneticin, are added. For M2Gqi5CHOnfat and M4Gqi5CHOnfat cells, an additional 600 ug/ml hygromycin is added.
Equipment: 384 well plate, 120 μL addition plate; 96-well Whatman 2 ml Uniplate Incubator, 37° C., 5% CO2; Skatron EMBLA-384 Plate Washer; Multimek Pipetting System; Genesis Freedom 200 System; Mosquito System; Temo Nanoliter Pipetting System; and FLIPR384 Fluorometric Imaging Plate Reader System are used.
Buffers. Assay Buffer: Hanks Balanced Salt Solution, with 20 mM Hepes, 2.5 mM Probenecid (Sigma P-8761) first dissolved in 1 N NaOH, 1% Bovine Serum Albumin (Sigma A-9647). Dye Loading Buffer: Assay Buffer plus 1% Fetal Bovine Serum and Fluo-4AM/Pluronic Acid Mixture. 2 mM Fluo-4AM ester stock in DMSO (Molecular Probes F-14202) Concentration of 2 μM in buffer for a final concentration of 1 μM in Assay. 20% Pluronic Acid Solution stock, with concentration of 0.04% in Buffer, 0.02% in Assay.
65 μl, of 2 mM Fluo-4AM are mixed with 130 μL of 20% Pluronic Acid. The resulting solution and 650 μL FBS is added to the assay buffer for a total volume of 65 mL. Positive Controls: 4-Br-A23187: 10 mM in DMSO; final concentration 10 μM. Acetylcholine: 10 mM in water, working stock at both 20 μM and 30 μM in assay buffer, final concentration of 10 μM. This is used to check the maximum stimulation of the CHOK1/hM1 cells. 20 μM (2×) acetylcholine is added in the preincubation part of the assay, and the 30 μM (3×) stock is added in the second part. (EC20)Acetylcholine: 10 mM in water, working stock of 9 nM (3×), and final concentration in assay is 3 nM. This is used after the preincubation with test compounds. Addition of the EC20 Acetylcholine to each well with a test compound will ascertain any modulator activity. 24 wells contain 3 nM Acetylcholine alone as a control.
Determining Activity of Putative Compounds:
Screening Plate: Compounds are titrated in 96-well plates (columns 2-11), 100% DMSO, started at a concentration of 15 mM (150× stock concentration), and 3-fold serial dilutions using Genesis Freedom200 System. Four 96-well plates are combined into a 384-well plate using Mosquito Nanoliter Pipetting System by transferring 1 μl of serial diluted compounds to each well, and 1 mM acetylcholine (100× stock concentration) were added as a control. Using Temo, 49 μl assay buffer is added to each well of the 384-well plate right before assay.
In a 96-well Whatman 2 ml Uniplate, 9 nM Acetylcholine (3×) is pipetted into wells corresponding to the screening compounds, and into control wells. The 30 μM acetylcholine control (3×) is added into control wells, and the 3× agonist plate is transferred into a 384 well plate.
Cells are washed three times with 100 μL of buffer, leaving 30 μL of buffer in each well. Using Multimek, 30 μl, of Dye Loading Buffer is added into each well and incubated at 37° C., 5% CO2 for up to one hr.
After […], the cells are washed three times with 100 μL of buffer, leaving 30 μL of buffer in each well. The cell plate, screening plate, and agonist addition plates are placed on the platform in the FLIPR and the door closed. A signal test to check background fluorescence and basal fluorescence signal is performed. Laser intensity is adjusted if necessary. […]
For orientation: Calcium assays in cells follow changes in intracellular calcium, usually with a dye or a luminescent sensor.
With `Cc1ccnc(C2(C#N)CCN(Cc3cc(C(=O)N[C@H]4CCCC[C@@H]4O)nc4ccccc34)CC2)c1` [Example 3, 4-{[4-cyano-4-(4-methylpyridin-2-yl)piperidin-1-yl]methyl}-N-[(1S,2S)-2-hydroxycyclohexyl]quinoline-2-carboxamide], the EC50 turned out to be 20 nM.

For `Cn1cc(N2CCN(Cc3cc(C(=O)N[C@H]4CCCC[C@@H]4O)nc4ccccc34)CC2)cn1` [Example 2, N-[(1S,2S)-2-hydroxycyclohexyl]-4-{[4-(1-methyl-1H-pyrazol-4-yl)piperazin-1-yl]methyl}quinoline-2-carboxamide], the EC50 amounted to 369 nM.

Regarding `N#CC1(c2ccccc2)CCN(Cc2cc(C(=O)N[C@H]3CCCC[C@@H]3O)nc3ccccc23)CC1` [Example 4, 4-[(4-cyano-4-phenylpiperidin-1-yl)methyl]-N-[(1S,2S)-2-hydroxycyclohexyl]quinoline-2-carboxamide], the EC50 turned out to be 325 nM.

Turning to `Cc1ccnc(C2(C#N)CCN(Cc3cc(C(=O)N[C@H]4CCOC[C@@H]4O)nc4ccccc34)CC2)c1` [Example 8, 1,5-anhydro-3-{[(4-{[4-cyano-4-(4-methylpyridin-2-yl)piperidin-1-yl]methyl}quinolin-2-yl)carbonyl]amino}-2,3-dideoxy-L-threo-pentitol], the EC50 came to 27 nM.

For `Cc1ccccc1C1(C#N)CCN(Cc2cc(C(=O)N[C@H]3CCCC[C@@H]3O)nc3ccccc23)CC1` [Example 7, 4-{[4-cyano-4-(2-methylphenyl)piperidin-1-yl]methyl}-N-[(1S,2S)-2-hydroxycyclohexyl]quinoline-2-carboxamide], the EC50 was 136 nM.

As to `N#CC1(c2ccccn2)CCN(Cc2cc(C(=O)N[C@H]3CCCC[C@@H]3O)nc3ccccc23)CC1` [Example 1, 4-[(4-cyano-4-pyridin-2-ylpiperidin-1-yl)methyl]-N-[(1S,2S)-2-hydroxycyclohexyl]quinoline-2-carboxamide], the EC50 was 54 nM.

In the case of `N#CC1(c2cccnc2)CCN(Cc2cc(C(=O)N[C@H]3CCCC[C@@H]3O)nc3ccccc23)CC1` [Example 9, 4-[(4-cyano-4-pyridin-3-ylpiperidin-1-yl)methyl]-N-[(1S,2S)-2-hydroxycyclohexyl]quinoline-2-carboxamide], the EC50 is 54 nM.

Take `N#CC1(c2ccccc2Cl)CCN(Cc2cc(C(=O)N[C@H]3CCCC[C@@H]3O)nc3ccccc23)CC1` [Example 6, 4-{[4-(2-chlorophenyl)-4-cyanopiperidin-1-yl]methyl}-N-[(1S,2S)-2-hydroxycyclohexyl]quinoline-2-carboxamide]: the EC50 worked out at 117 nM.

`N#CC1(c2ccccc2F)CCN(Cc2cc(C(=O)N[C@H]3CCCC[C@@H]3O)nc3ccccc23)CC1` [Example 5, 4-{[4-cyano-4-(2-fluorophenyl)piperidin-1-yl]methyl}-N-[(1S,2S)-2-hydroxycyclohexyl]quinoline-2-carboxamide]: the EC50 was 81 nM.
